Laboratory results published in ChEMBL document CHEMBL6114980, “Single or double lipid-modified ultra-short antimicrobial peptides for treating infections caused by resistant bacteria” (Eur J Med Chem, 2025).

Assays:
Format in all cases: functional
[1] = tested on: Acinetobacter baumannii; assay: Antibacterial activity against Acinetobacter baumannii ATCC 19606 assessed as reduction in bacterial growth incubated for 18 to 24 hrs by broth microdilution method; details: time 18-24 hrs
[2] = tested on: Klebsiella pneumoniae; assay: Antibacterial activity against Klebsiella pneumoniae ATCC 700603 assessed as reduction in bacterial growth incubated for 18 to 24 hrs by broth microdilution method; details: time 18-24 hrs
[3] = tested on: Escherichia coli; assay: Antibacterial activity against Escherichia coli ATCC 25922 assessed as reduction in bacterial growth incubated for 18 to 24 hrs by broth microdilution method; details: time 18-24 hrs
[4] = tested on: Pseudomonas aeruginosa; assay: Antibacterial activity against Pseudomonas aeruginosa ATCC 27853 assessed as reduction in bacterial growth incubated for 18 to 24 hrs by broth microdilution method; details: time 18-24 hrs
[5] = tested on: Staphylococcus aureus; assay: Antibacterial activity against methicillin-resistant Staphylococcus aureus ATCC 33591 assessed as reduction in bacterial growth incubated for 18 to 24 hrs by broth microdilution method; details: time 18-24 hrs
[6] = tested on: Staphylococcus aureus; assay: Antibacterial activity against methicillin-resistant Staphylococcus aureus 75 assessed as reduction in bacterial growth incubated for 18 to 24 hrs by broth microdilution method; details: time 18-24 hrs
[7] = tested on: Staphylococcus aureus; assay: Antibacterial activity against Staphylococcus aureus 125 assessed as reduction in bacterial growth incubated for 18 to 24 hrs by broth microdilution method; details: time 18-24 hrs
[8] = tested on: Staphylococcus aureus; assay: Antibacterial activity against Staphylococcus aureus 794 assessed as reduction in bacterial growth incubated for 18 to 24 hrs by broth microdilution method; details: time 18-24 hrs
[9] = tested on: Enterococcus faecalis; assay: Antibacterial activity against Enterococcus faecalis ATCC 29212 assessed as reduction in bacterial growth incubated for 18 to 24 hrs by broth microdilution method; details: time 18-24 hrs
[10] = tested on: Staphylococcus epidermidis; assay: Antibacterial activity against Staphylococcus epidermidis ATCC 12228 assessed as reduction in bacterial growth incubated for 18 to 24 hrs by broth microdilution method; details: time 18-24 hrs
[11] = tested on: Staphylococcus aureus; assay: Antibacterial activity against Staphylococcus aureus ATCC 25923 assessed as reduction in bacterial growth incubated for 18 to 24 hrs by broth microdilution method; details: time 18-24 hrs
[12] = tested on: Acinetobacter baumannii; assay: Antibacterial activity against Acinetobacter baumannii 5444 assessed as reduction in bacterial growth incubated for 18 to 24 hrs by broth microdilution method; details: time 18-24 hrs
[13] = tested on: Acinetobacter baumannii; assay: Antibacterial activity against Acinetobacter baumannii 92359 assessed as reduction in bacterial growth incubated for 18 to 24 hrs by broth microdilution method; details: time 18-24 hrs
[14] = tested on: Escherichia coli; assay: Antibacterial activity against Escherichia coli 850 assessed as reduction in bacterial growth incubated for 18 to 24 hrs by broth microdilution method; details: time 18-24 hrs
[15] = tested on: Escherichia coli; assay: Antibacterial activity against Escherichia coli 780 assessed as reduction in bacterial growth incubated for 18 to 24 hrs by broth microdilution method; details: time 18-24 hrs
[16] = tested on: Pseudomonas aeruginosa; assay: Antibacterial activity against Pseudomonas aeruginosa 124 assessed as reduction in bacterial growth incubated for 18 to 24 hrs by broth microdilution method; details: time 18-24 hrs
[17] = tested on: Pseudomonas aeruginosa; assay: Antibacterial activity against Pseudomonas aeruginosa 6434N assessed as reduction in bacterial growth incubated for 18 to 24 hrs by broth microdilution method; details: time 18-24 hrs
[18] = tested on: Staphylococcus aureus; assay: Antibacterial activity against Staphylococcus aureus assessed as reduction in survival bacterial growth in presence of NaCl measured after 18 to 24 hrs (reference value: 8 microM); details: time 18-24 hrs
[19] = tested on: Staphylococcus aureus; assay: Antibacterial activity against Staphylococcus aureus assessed as reduction in survival bacterial growth in presence of Mgcl2 measured after 18 to 24 hrs (reference value: 8 microM); details: time 18-24 hrs
[20] = tested on: Staphylococcus aureus; assay: Antibacterial activity against Staphylococcus aureus assessed as reduction in survival bacterial growth in presence of ZnCl2 measured after 18 to 24 hrs (reference value: 8 microM); details: time 18-24 hrs
[21] = tested on: Staphylococcus aureus; assay: Antibacterial activity against Staphylococcus aureus assessed as reduction in survival bacterial growth in presence of KCl measured after 18 to 24 hrs (reference value: 8 microM); details: time 18-24 hrs
[22] = tested on: Staphylococcus aureus; assay: Antibacterial activity against Staphylococcus aureus assessed as reduction in survival bacterial growth in presence of FeCl3 measured after 18 to 24 hrs (reference value: 8 microM); details: time 18-24 hrs
[23] = tested on: Escherichia coli; assay: Antibacterial activity against Escherichia coli assessed as reduction in survival bacterial growth in presence of NaCl measured after 18 to 24 hrs (reference value: 2 microM); details: time 18-24 hrs
[24] = tested on: Escherichia coli; assay: Antibacterial activity against Escherichia coli assessed as reduction in survival bacterial growth in presence of MgCl2 measured after 18 to 24 hrs (reference value: 2 microM); details: time 18-24 hrs
[25] = tested on: Escherichia coli; assay: Antibacterial activity against Escherichia coli assessed as reduction in survival bacterial growth in presence of ZnCl2 measured after 18 to 24 hrs (reference value: 2 microM); details: time 18-24 hrs
[26] = tested on: Escherichia coli; assay: Antibacterial activity against Escherichia coli assessed as reduction in survival bacterial growth in presence of KCl measured after 18 to 24 hrs (reference value: 2 microM); details: time 18-24 hrs
[27] = tested on: Escherichia coli; assay: Antibacterial activity against Escherichia coli assessed as reduction in survival bacterial growth in presence of FeCl3 measured after 18 to 24 hrs (reference value: 2 microM); details: time 18-24 hrs
[28] = tested on: Escherichia coli; assay: Antibacterial activity against Escherichia coli assessed as reduction in survival bacterial growth by measuring fold change in presence of ZnCl2 measured after 18 to 24 hrs; details: time 18-24 hrs
[29] = tested on: Escherichia coli; assay: Antibacterial activity against Escherichia coli assessed as reduction in survival bacterial growth by measuring fold change in presence of MgCl2 measured after 18 to 24 hrs; details: time 18-24 hrs
[30] = tested on: Staphylococcus aureus; assay: Antibacterial activity against Staphylococcus aureus assessed as reduction in survival bacterial growth by measuring fold change in presence of MgCl2 measured after 18 to 24 hrs; details: time 18-24 hrs
[31] = tested on: Escherichia coli; assay: Antibacterial activity against Escherichia coli assessed as reduction in survival bacterial growth by measuring fold change in presence of NaCl measured after 18 to 24 hrs; details: time 18-24 hrs
[32] = tested on: Staphylococcus aureus; assay: Antibacterial activity against Staphylococcus aureus assessed as reduction in survival bacterial growth by measuring fold change in presence of NaCl measured after 18 to 24 hrs; details: time 18-24 hrs
[33] = tested on: Escherichia coli; assay: Bactericidal activity against Escherichia coli 25922 assessed as eradication of bacteria at 2 times MIC measured within 1 hr by time-kill assay relative to control
[34] = tested on: Klebsiella pneumoniae; assay: Antibacterial activity against Klebsiella pneumoniae ATCC 700603 infected in male BALB/c mouse lung infection model assessed as reduction in bacterial load at 5 mg/kg, ip measured after 6 to 36 hrs (reference value: 1.77 10^6CFU/mg); details: time 6-36 hrs

`CC(C)CCCCC(=O)N[C@@H](CCN)C(=O)N[C@H](C(=O)N[C@@H](CCN)C(=O)N[C@H]1CCNC(=O)[C@H]([C@@H](C)O)NC(=O)[C@H](CCN)NC(=O)[C@H](CCN)NC(=O)[C@H](CC(C)C)NC(=O)[C@@H](Cc2ccccc2)NC(=O)[C@H](CCN)NC1=O)[C@@H](C)O.CC[C@H](C)CCCCC(=O)N[C@@H](CCN)C(=O)N[C@H](C(=O)N[C@@H](CCN)C(=O)N[C@H]1CCNC(=O)[C@H]([C@@H](C)O)NC(=O)[C@H](CCN)NC(=O)[C@H](CCN)NC(=O)[C@H](CC(C)C)NC(=O)[C@@H](Cc2ccccc2)NC(=O)[C@H](CCN)NC1=O)[C@@H](C)O` gave an MIC [1] of 4 µM, an MIC [2] of 4 µM and an MIC [3] of 2 µM. For the same compound, the MIC [4] was 4 µM, the MIC [5] was 16 µM and the MIC [6] was 16 µM. For the same compound, the MIC [7] was 8 µM, the MIC [8] was 16 µM and the MIC [9] was 128 µM. For the same compound, the MIC [10] was 8 µM, the MIC [11] was 8 µM and the MIC [12] was 32 µM. For the same compound, the MIC [13] was 32 µM, the MIC [14] was 4 µM and the MIC [15] was 4 µM. For the same compound, the MIC [16] was 16 µM, the MIC [17] was 2 µM and the MIC [18] was 128 µM. It also gave an MIC [19] of 16 µM, an MIC [20] of 8 µM and an MIC [21] of 8 µM. It also gave an MIC [22] of 8 µM, an MIC [23] of 2 µM and an MIC [24] of 2 µM. It also gave an MIC [25] of 1 µM, an MIC [26] of 2 µM and an MIC [27] of 2 µM. For the same compound, the “fold change (FC)” value [28] was 2, the “fold change (FC)” value [29] was 2 and the “fold change (FC)” value [30] was 2. The “fold change (FC)” value [31] was 16, the “fold change (FC)” value [32] was 16 and the Activity [33] was 100%. The Activity [34] was 1.54 10^4CFU/mg.
